Source: US20110070232A1, “Combination Therapy with an Antitumor Alkaloid” (Pharma Mar, S.A., priority 2008, published 2011)
Where two headings read alike, the source gives them in different places.

Experiments:
Type in all cases: in vivo, mice
CaLu-6 tumors = system: CaLu-6 tumors
Excerpt: (§1) Female athymic nude mice (Harlan Sprague Dawley, Madison, Wis.) were utilized for all experiments. Animals were housed in ventilated rack caging with food and water ad libitum. The mice were acclimated for at least 5 days prior to tumor implantation.
The tumor model used in this study was CaLu-6 cell line which is a human lung cell line obtained from the ATCC (Manassas, Va.). […] Cells from in vitro passage 10 were those implanted SC into study mice.
(§2) Treatments were initiated on DPI 9.
(§3) Tumor size measurements were recorded 2-3 times/week from the treatment initiation until the termination of the study.
(§4) Mean, standard deviation and standard error of the mean were determined for tumor volume for all animal groups at all assessments. Student's t test was performed on tumor volumes at each measurement day, including at the end of the study, to determine whether there were any statistically significant differences between combination treatment groups and single monotherapy treatment groups.

NCI-H460 tumors [1] = system: NCI-H460 tumors
Excerpt: as §1
The tumor model used in this study was NCI-H460 cell line which is a human lung cell line obtained from the ATCC (Manassas, Va.). […] Cells from in vitro passage 16 were those implanted SC into study mice.
Treatments were initiated on DPI 8.
as §3, §4

H-Meso-1 tumors = settings: G4 pemetrexed 100 mg/kg/day IP
Procedure: as §1
The tumor model used in this study was H-Meso-1 cell line which is a human mesothelioma cell line obtained from the DTP, DCTD tumor repository. […] Cells were implanted SC into study mice using a 1 ml syringe with a 13G trocar: 5×10^6 cells/mouse in 0.2 ml 50% Matrigel/50% RPMI medium of H-Meso-1 without serum or antibiotics. Bacterial culture was taken on cells used to implant the study.
Treatments were initiated on DPI 6.
as §3, §4

SK-OV-3 tumors = system: SK-OV-3 tumors
Excerpt: Female athymic nude mice (Harlan Sprague Dawley, Madison, Wis.) were utilized for all experiments. Animals were housed in ventilated rack caging with food and water ad libitum. The mice were acclimated for at least 5 days prior to tumor implantation with tumor fragments.
The tumor model used in these studies was SK-OV-3 cell line, which was obtained from the ATCC (Manassas, Va.).
SK-OV-3 fragments were removed from donor animals and tissue was debrided of membrane and any hemorrhagic and necrotic areas and 3-4 mm^3 fragments, from in vivo passage 2, were implanted SC on the right flank of each animal, using a 13G trochar. Bacterial culture was taken on cells used to implant the study.
Treatments were initiated on DPI 14.
Tumor size measurements were recorded twice weekly from the treatment initiation until the termination of the study.
as §4

NCI-H460 tumors [2] = system: NCI-H460 tumors; remark: listed apart in the source
Procedure: as §1
The tumor model used in this study was NCI-H460 cell line which is a human NSCLC cell line obtained from the ATCC (Manassas, Va.). […] Cells from in vitro passage 7 were implanted SC into study mice using a 1 ml syringe with a 13G trocar: 5×10^6 cells/mouse in 0.2 ml 50% Matrigel/50% RPMI medium of NCI-H460 without serum or antibiotics. Bacterial culture was taken on cells used to implant the study.
as §2, §3, §4

[3] = day 13, G3 pemetrexed 125 mg/kg/day IP
[4] = day 13, G4 pemetrexed 100 mg/kg/day IP
[5] = day 16, G3 pemetrexed 125 mg/kg/day IP
[6] = day 16, G4 pemetrexed 100 mg/kg/day IP
[7] = day 20, G3 pemetrexed 125 mg/kg/day IP
[8] = day 20, G4 pemetrexed 100 mg/kg/day IP
[9] = day 23, G3 pemetrexed 125 mg/kg/day IP
[10] = day 23, G4 pemetrexed 100 mg/kg/day IP
[11] = Bevacizumab […] IP, alone or with PM00104 0.90 mg/kg/day IV
[12] = PM00104 0.90 mg/kg/day IV and/or Bevacizumab 5 mg/kg/day IP
[13] = Bevacizumab […] IP, alone or with PM00104 0.9 mg/kg/day IV
[14] = PM00104 0.9 mg/kg/day IV and/or Bevacizumab 5 mg/kg/day IP

Nc1nc2[nH]cc(CCc3ccc(C(=O)N[C@@H](CCC(=O)O)C(=O)O)cc3)c2c(=O)[nH]1 [pemetrexed]
% T/C on day 9 (CaLu-6 tumors; G3 pemetrexed 125 mg/kg/day IP): 99.6%
% T/C on day 16 (CaLu-6 tumors; G3 pemetrexed 125 mg/kg/day IP): 86.6%
% T/C on day 20 (CaLu-6 tumors; G3 pemetrexed 125 mg/kg/day IP): 104.8%
% T/C on day 23 (CaLu-6 tumors; G3 pemetrexed 125 mg/kg/day IP): 98.7%
% T/C on day 27 (CaLu-6 tumors; G3 pemetrexed 125 mg/kg/day IP): 87.9%
% T/C on day 30 (CaLu-6 tumors; G3 pemetrexed 125 mg/kg/day IP): 90.0%
% T/C on day 34 (CaLu-6 tumors; G3 pemetrexed 125 mg/kg/day IP): 89.1%
% T/C on day 42 (CaLu-6 tumors; G3 pemetrexed 125 mg/kg/day IP): 94.2%
% T/C on day 9 (CaLu-6 tumors; G4 pemetrexed 100 mg/kg/day IP): 103.4%
% T/C on day 13 (CaLu-6 tumors; G4 pemetrexed 100 mg/kg/day IP): 126.5%
% T/C on day 16 (CaLu-6 tumors; G4 pemetrexed 100 mg/kg/day IP): 103.5%
% T/C on day 20 (CaLu-6 tumors; G4 pemetrexed 100 mg/kg/day IP): 120.6%
% T/C on day 23 (CaLu-6 tumors; G4 pemetrexed 100 mg/kg/day IP): 111.5%
% T/C on day 27 (CaLu-6 tumors; G4 pemetrexed 100 mg/kg/day IP): 101.8%
% T/C on day 30 (CaLu-6 tumors; G4 pemetrexed 100 mg/kg/day IP): 105.8%
% T/C on day 34 (CaLu-6 tumors; G4 pemetrexed 100 mg/kg/day IP): 102.2%
% T/C on day 42 (CaLu-6 tumors; G4 pemetrexed 100 mg/kg/day IP): 100.5%
% Inhibition (CaLu-6 tumors; day 9, G3 pemetrexed 125 mg/kg/day IP): 0.4%
% Inhibition (CaLu-6 tumors; day 9, G4 pemetrexed 100 mg/kg/day IP): −3.4%
% Inhibition (CaLu-6 tumors; [3]): −16.6%
% Inhibition (CaLu-6 tumors; [4]): −26.5%
% Inhibition (CaLu-6 tumors; [5]): 13.4%
% Inhibition (CaLu-6 tumors; [6]): −3.5%
% Inhibition (CaLu-6 tumors; [7]): −4.8%
% Inhibition (CaLu-6 tumors; [8]): −20.6%
% Inhibition (CaLu-6 tumors; [9]): 1.3%
% Inhibition (CaLu-6 tumors; [10]): −11.5%
% Inhibition (CaLu-6 tumors; day 27, G3 pemetrexed 125 mg/kg/day IP): 12.1%
% Inhibition (CaLu-6 tumors; day 27, G4 pemetrexed 100 mg/kg/day IP): −1.8%
% Inhibition (CaLu-6 tumors; day 30, G3 pemetrexed 125 mg/kg/day IP): 10.0%
% Inhibition (CaLu-6 tumors; day 30, G4 pemetrexed 100 mg/kg/day IP): −5.8%
% Inhibition (CaLu-6 tumors; day 34, G3 pemetrexed 125 mg/kg/day IP): 10.9%
% Inhibition (CaLu-6 tumors; day 34, G4 pemetrexed 100 mg/kg/day IP): −2.2%
% Inhibition (CaLu-6 tumors; day 42, G3 pemetrexed 125 mg/kg/day IP): 5.8%
% Inhibition (CaLu-6 tumors; day 42, G4 pemetrexed 100 mg/kg/day IP): −0.5%
% T/C on day 8 (NCI-H460 tumors [1]; G3 pemetrexed 125 mg/kg/day IP): 102.6%
% T/C on day 10 (NCI-H460 tumors [1]; G3 pemetrexed 125 mg/kg/day IP): 119.0%
% T/C on day 13 (NCI-H460 tumors [1]; G3 pemetrexed 125 mg/kg/day IP): 67.5%
% T/C on day 16 (NCI-H460 tumors [1]; G3 pemetrexed 125 mg/kg/day IP): 71.0%
% T/C on day 20 (NCI-H460 tumors [1]; G3 pemetrexed 125 mg/kg/day IP): 70.4%
% T/C on day 23 (NCI-H460 tumors [1]; G3 pemetrexed 125 mg/kg/day IP): 85.4%
% T/C on day 28 (NCI-H460 tumors [1]; G3 pemetrexed 125 mg/kg/day IP): 72.9%
% T/C on day 31 (NCI-H460 tumors [1]; G3 pemetrexed 125 mg/kg/day IP): 82.6%
% T/C on day 8 (NCI-H460 tumors [1]; G4 pemetrexed 100 mg/kg/day IP): 103.0%
% T/C on day 10 (NCI-H460 tumors [1]; G4 pemetrexed 100 mg/kg/day IP): 107.3%
% T/C on day 13 (NCI-H460 tumors [1]; G4 pemetrexed 100 mg/kg/day IP): 75.7%
% T/C on day 16 (NCI-H460 tumors [1]; G4 pemetrexed 100 mg/kg/day IP): 72.4%
% T/C on day 20 (NCI-H460 tumors [1]; G4 pemetrexed 100 mg/kg/day IP): 72.9%
% T/C on day 23 (NCI-H460 tumors [1]; G4 pemetrexed 100 mg/kg/day IP): 86.3%
% T/C on day 28 (NCI-H460 tumors [1]; G4 pemetrexed 100 mg/kg/day IP): 76.8%
% T/C on day 31 (NCI-H460 tumors [1]; G4 pemetrexed 100 mg/kg/day IP): 96.9%
% Inhibition (NCI-H460 tumors [1]; day 8, G3 pemetrexed 125 mg/kg/day IP): −2.6%
% Inhibition (NCI-H460 tumors [1]; day 8, G4 pemetrexed 100 mg/kg/day IP): −3.0%
% Inhibition (NCI-H460 tumors [1]; day 10, G3 pemetrexed 125 mg/kg/day IP): −19.0%
% Inhibition (NCI-H460 tumors [1]; day 10, G4 pemetrexed 100 mg/kg/day IP): −7.3%
% Inhibition (NCI-H460 tumors [1]; [3]): 32.5%
% Inhibition (NCI-H460 tumors [1]; [4]): 24.3%
% Inhibition (NCI-H460 tumors [1]; [5]): 29.0%
% Inhibition (NCI-H460 tumors [1]; [6]): 27.6%
% Inhibition (NCI-H460 tumors [1]; [7]): 29.6%
% Inhibition (NCI-H460 tumors [1]; [8]): 27.1%
% Inhibition (NCI-H460 tumors [1]; [9]): 14.6%
% Inhibition (NCI-H460 tumors [1]; [10]): 13.7%
% Inhibition (NCI-H460 tumors [1]; day 28, G3 pemetrexed 125 mg/kg/day IP): 27.1%
% Inhibition (NCI-H460 tumors [1]; day 28, G4 pemetrexed 100 mg/kg/day IP): 23.2%
% Inhibition (NCI-H460 tumors [1]; day 31, G3 pemetrexed 125 mg/kg/day IP): 17.4%
% Inhibition (NCI-H460 tumors [1]; day 31, G4 pemetrexed 100 mg/kg/day IP): 3.1%
% T/C on day 6 (H-Meso-1 tumors): 102.1%
% T/C on day 7 (H-Meso-1 tumors): 100.2%
% T/C on day 9 (H-Meso-1 tumors): 109.0%
% T/C on day 12 (H-Meso-1 tumors): 105.7%
% T/C on day 14 (H-Meso-1 tumors): 124.2%
% T/C on day 16 (H-Meso-1 tumors): 128.6%
% T/C on day 19 (H-Meso-1 tumors): 110.4%
% T/C on day 22 (H-Meso-1 tumors): 100.8%
% T/C on day 26 (H-Meso-1 tumors): 122.9%
% Inhibition (H-Meso-1 tumors; day 6): −2.1%
% Inhibition (H-Meso-1 tumors; day 7): −0.2%
% Inhibition (H-Meso-1 tumors; day 9): −9.0%
% Inhibition (H-Meso-1 tumors; day 12): −5.7%
% Inhibition (H-Meso-1 tumors; day 14): −24.2%
% Inhibition (H-Meso-1 tumors; day 16): −28.6%
% Inhibition (H-Meso-1 tumors; day 19): −10.4%
% Inhibition (H-Meso-1 tumors; day 22): −0.8%
% Inhibition (H-Meso-1 tumors; day 26): −22.9%
% Inhibition (H-Meso-1 tumors; day 29): −22.4%

bevacizumab
% T/C on day 14 (SK-OV-3 tumors; [11]): 100.5%
% T/C on day 17 (SK-OV-3 tumors; [11]): 85.0%
% T/C on day 21 (SK-OV-3 tumors; [11]): 61.0%
% T/C on day 24 (SK-OV-3 tumors; [11]): 48.4%
% T/C on day 29 (SK-OV-3 tumors; [11]): 32.1%
% T/C on day 32 (SK-OV-3 tumors; [11]): 29.6%
% T/C on day 36 (SK-OV-3 tumors; [11]): 40.3%
% T/C on day 43 (SK-OV-3 tumors; [11]): 48.7%
% T/C on day 50 (SK-OV-3 tumors; [11]): 47.5%
% T/C on day 57 (SK-OV-3 tumors; [11]): 70.0%
% T/C on day 14 (SK-OV-3 tumors; [12]): 100.2%
% T/C on day 17 (SK-OV-3 tumors; [12]): 76.6%
% T/C on day 21 (SK-OV-3 tumors; [12]): 64.0%
% T/C on day 24 (SK-OV-3 tumors; [12]): 42.6%
% T/C on day 29 (SK-OV-3 tumors; [12]): 28.0%
% T/C on day 32 (SK-OV-3 tumors; [12]): 25.8%
% T/C on day 36 (SK-OV-3 tumors; [12]): 30.7%
% T/C on day 43 (SK-OV-3 tumors; [12]): 43.8%
% T/C on day 50 (SK-OV-3 tumors; [12]): 42.5%
% T/C on day 57 (SK-OV-3 tumors; [12]): 46.1%
% T/C on day 9 (NCI-H460 tumors [2]; [13]): 99.4%
% T/C on day 13 (NCI-H460 tumors [2]; [13]): 81.7%
% T/C on day 16 (NCI-H460 tumors [2]; [13]): 74.3%
% T/C on day 21 (NCI-H460 tumors [2]; [13]): 59.7%
% T/C on day 24 (NCI-H460 tumors [2]; [13]): 52.0%
% T/C on day 27 (NCI-H460 tumors [2]; [13]): 26.9%
% T/C on day 30 (NCI-H460 tumors [2]; [13]): 43.3%
% T/C on day 38 (NCI-H460 tumors [2]; [13]): 96.8%
% T/C on day 41 (NCI-H460 tumors [2]; [13]): 104.7%
% T/C on day 9 (NCI-H460 tumors [2]; [14]): 102.1%
% T/C on day 13 (NCI-H460 tumors [2]; [14]): 91.3%
% T/C on day 16 (NCI-H460 tumors [2]; [14]): 87.6%
% T/C on day 21 (NCI-H460 tumors [2]; [14]): 74.2%
% T/C on day 24 (NCI-H460 tumors [2]; [14]): 68.3%
% T/C on day 27 (NCI-H460 tumors [2]; [14]): 38.7%
% T/C on day 30 (NCI-H460 tumors [2]; [14]): 43.7%
